Read-outs that look alike come from different tables or passages of the source.
Key:
[1] = in vitro; conditions: human, hNCI-H716 colorectal adenocarcinoma cells
[2] = test system: GLP-1 secretion from mSTC-1 cells; test: Concentration-response curve; format: cell-based, mouse
[3] = in vitro; conditions: mouse, mSTC-1 cells
[4] = test system: GLP-1 release from hNCI-H716 colorectal adenocarcinoma cell line; test: CRC EC50 in GLP-1 release from hNCI-H716 cells; format: cell-based; conditions: Homo sapiens, read-out: hNCI-H716 GLP1 Sec CRC EC50
[5] = test system: GLP-1 secretion from mouse secretin tumor (mSTC-1) intestinal enteroendocrine cells; test: ELISA primary assay: GLP-1 secretion from mSTC-1 cells, percent stimulation; format: cell-based; conditions: for mSTC-1 GLP1 Sec %Stim@2 μM: 2 μM test compound; for mSTC-1 GLP1 Sec %Stim@2 μM / mSTC-1 GLP1 Sec %Stim@20 μM: mSTC-1 cells, ELISA; for mSTC-1 GLP1 Sec %Stim@20 μM: 20 μM test compound; for activation at 20 µM: Mus musculus, read-out: mSTC-1 GLP1 Sec %Stim@20 μM
[6] = Mus musculus, read-out: mSTC-1 GLP1 Sec CRC EC50, mSTC-1 cells, concentration-response curve
[7] = read-out: mSTC-1 GLP1 Sec CRC EC50, mSTC-1 cells, concentration-response curve

COc1ccc2c(c1)[C@@H](NC(=O)OCc1ccccc1)[C@H](C)[C@@H](C(C)C)N2 [Compound 5b, Benzyl ((2R,3R,4S)-2-isopropyl-6-methoxy-3-methyl-1,2,3,4-tetrahydroquinolin-4-yl)carbamate]
EC50 [1]: > 40 µM | EC50 [2, 6]: 10.8 µM | EC50 [3]: > 40 µM | EC50 [4]: > 40 µM | mSTC-1 GLP1 Sec %Stim@2 μM [5]: 0% | mSTC-1 GLP1 Sec %Stim@20 μM [5]: 98%

COc1ccc2c(c1)[C@@H](NC(C)=O)[C@H](C)[C@@H](c1ccccc1)N2C(=O)Nc1ccc(C(F)(F)F)cc1 [Compound 8i, (2S,3S,4S)-4-Acetamido-6-methoxy-3-methyl-2-phenyl-N-(4-(trifluoromethyl)phenyl)-3,4-dihydroquinoline-1(2H)-carboxamide]
activation at 20 µM [5]: 0%

COc1ccc2c(c1)[C@@H](NC(=O)OCc1ccccc1)[C@H](C)[C@@H](c1ccccc1)N2 [Compound 5a, benzyl (2S,3R,4S)-6-methoxy-3-methyl-2-phenyl-1,2,3,4-tetrahydroquinolin-4-ylcarbamate]
EC50 [1]: > 40 µM | EC50 [2, 6]: < 10 µM | EC50 [2, 7]: 5.3 µM | EC50 [3]: > 40 µM | EC50 [4]: > 40 µM | mSTC-1 GLP1 Sec %Stim@2 μM [5]: 2% | mSTC-1 GLP1 Sec %Stim@20 μM [5]: 68%

COc1ccc2c(c1)[C@@H](NC(=O)OCc1ccccc1)[C@H](C)[C@@H](c1ccccc1)N2Cc1ccccn1 [Compound 6c, Benzyl (2S,3S,4S)-6-methoxy-3-methyl-2-phenyl-1-(pyridin-2-ylmethyl)-1,2,3,4-tetrahydroquinolin-4-ylcarbamate]
activation at 20 µM [5]: 0%

C[C@@H]1[C@@H](c2ccccc2)Nc2ccc(-c3ccccc3)cc2[C@H]1NC(=O)OCc1ccccc1 [Compound 9, Benzyl (2S,3R,4S)-3-methyl-2,6-diphenyl-1,2,3,4-tetrahydroquinolin-4-ylcarbamate]
EC50 [1]: > 40 µM | EC50 [2, 6]: 2.2 µM | EC50 [3]: > 40 µM | EC50 [4]: > 40 µM | mSTC-1 GLP1 Sec %Stim@2 μM [5]: 82% | mSTC-1 GLP1 Sec %Stim@20 μM [5]: 99%

CC[C@H]1Nc2ccc(OC)cc2[C@@H](NCc2nccs2)[C@@H]1C [Compound 8n, (2R,3R,4S)-2-Ethyl-6-methoxy-3-methyl-N-(thiazol-2-ylmethyl)-1,2,3,4-tetrahydroquinolin-4-amine]
EC50 [1]: > 40 µM | EC50 [2, 6]: 26.1 µM | EC50 [3]: > 40 µM | EC50 [4]: > 40 µM | mSTC-1 GLP1 Sec %Stim@2 μM [5]: 0% | mSTC-1 GLP1 Sec %Stim@20 μM [5]: 49%

COc1ccc2c(c1)[C@@H](NC(=O)OCc1ccccc1)[C@H](C)[C@@H](c1ccccc1)N2Cc1cccc(F)c1 [Compound 6a, Benzyl(2S,3S,4S)-1-(3-fluorobenzyl)-6-methoxy-3-methyl-2phenyl-1,2,3,4-tetrahydroquinolin-4-ylcarbamate]
EC50 [1]: > 40 µM | EC50 [2, 6]: > 40 µM | EC50 [3]: > 40 µM | EC50 [4]: > 40 µM | mSTC-1 GLP1 Sec %Stim@2 μM [5]: 8% | mSTC-1 GLP1 Sec %Stim@20 μM [5]: 40%

CC[C@H]1Nc2ccc(OC)cc2[C@@H](NS(C)(=O)=O)[C@@H]1C [Compound 8l, N-((2R,3R,4S)-2-Ethyl-6-methoxy-3-methyl-1,2,3,4-tetrahydroquinolin-4-yl)methanesulfonamide]
activation at 20 µM [5]: 0%

COc1ccc2c(c1)[C@@H](NC(=O)c1c(C)noc1C)[C@H](C)[C@@H](c1ccccc1)N2Cc1cccc(F)c1 [Compound 8j, N-((2S,3S,4S)-1-(3-Fluorobenzyl)-6-methoxy-3-methyl-2-phenyl-1,2,3,4-tetrahydroquinolin-4-yl)-3,5-dimethylisoxazole-4-carboxamide]
activation at 20 µM [5]: 0%

COc1ccc2c(c1)[C@@H](NCc1nccs1)[C@H](C)[C@@H](C(C)C)N2 [Compound 8o, (2R,3R,4S)-2-Isopropyl-6-methoxy-3-methyl-N-(thiazol-2-ylmethyl)-1,2,3,4-tetrahydroquinolin-4-amine]
EC50 [1]: > 40 µM | EC50 [2, 6]: 16.9 µM | EC50 [3]: > 40 µM | EC50 [4]: > 40 µM | mSTC-1 GLP1 Sec %Stim@2 μM [5]: 0% | mSTC-1 GLP1 Sec %Stim@20 μM [5]: 61%

COc1ccc2c(c1)[C@@H](NC(=O)OCc1ccccc1)[C@H](C)[C@@H](c1cccnc1)N2 [Compound 5f, Benzyl (2S,3R,4S)-6-methoxy-3-methyl-2-(pyridin-3-yl)-1,2,3,4-tetrahydroquinolin-4-ylcarbamate]
mSTC-1 GLP1 Sec %Stim@2 μM [5]: 0% | mSTC-1 GLP1 Sec %Stim@20 μM [5]: 22%

CC[C@H]1Nc2ccc(NC(C)=O)cc2[C@@H](NS(C)(=O)=O)[C@@H]1C [Compound 8q, N-((2R,3R,4S)-2-Ethyl-3-methyl-4-(methylsulfonamido)-1,2,3,4-tetrahydroquinolin-6-yl)acetamide]
mSTC-1 GLP1 Sec %Stim@2 μM [5]: 0% | mSTC-1 GLP1 Sec %Stim@20 μM [5]: 18%

COc1ccc2c(c1)[C@@H](NC(=O)OCc1ccccc1)[C@H](C)[C@@H](c1ccccc1)N2C(=O)NC(C)C [Compound 6g, Benzyl ((2S,3S,4S)-1-(isopropylcarbamoyl)-6-methoxy-3-methyl-2-phenyl-1,2,3,4-tetrahydroquinolin-4-yl)carbamate]
activation at 20 µM [5]: 0%

COc1ccc2c(c1)[C@@H](NC(=O)c1c(C)noc1C)[C@H](C)[C@@H](c1ccccc1)N2C(=O)NC(C)C [Compound 8f, N-((2S,3S,4S)-1-(Isopropylcarbamoyl)-6-methoxy-3-methyl-2-phenyl-1,2,3,4-tetrahydroquinolin-4-yl)-3,5-dimethylisoxazole-4-carboxamide]
activation at 20 µM [5]: 0%

CC[C@H]1Nc2ccc(NC(=O)OC(C)(C)C)cc2[C@@H](NC(=O)OCc2ccccc2)[C@@H]1C [Compound 5e, Benzyl tert-butyl ((2R,3R,4S)-2-ethyl-3-methyl-1,2,3,4-tetrahydroquinoline-4,6-diyl)dicarbamate]
activation at 20 µM [5]: 0%

COc1ccc2c(c1)[C@@H](N(Cc1nccs1)Cc1nccs1)[C@H](C)[C@@H](C(C)C)N2 [Compound 8p, (2R,3R,4S)-2-Isopropyl-6-methoxy-3-methyl-N,N-bis(thiazol-2-ylmethyl)-1,2,3,4-tetrahydroquinolin-4-amine]
EC50 [1]: > 40 µM | EC50 [2, 6]: 21.9 µM | EC50 [3]: > 40 µM | EC50 [4]: > 40 µM | mSTC-1 GLP1 Sec %Stim@2 μM [5]: 0% | mSTC-1 GLP1 Sec %Stim@20 μM [5]: 80%

COc1ccc2c(c1)[C@@H](NCc1nccs1)[C@H](C)[C@@H](c1ccccc1)N2C(=O)NC(C)C [Compound 8d, (2S,3S,4S)-N-Isopropyl-6-methoxy-3-methyl-2-phenyl-4-((thiazol-2-ylmethyl)amino)-3,4-dihydroquinoline-1(2H)-carboxamide]
EC50 [1]: > 40 µM | EC50 [2, 6]: > 40 µM | EC50 [3]: > 40 µM | EC50 [4]: > 40 µM | mSTC-1 GLP1 Sec %Stim@2 μM [5]: 0% | mSTC-1 GLP1 Sec %Stim@20 μM [5]: 28%

COc1ccc2c(c1)[C@@H](NS(C)(=O)=O)[C@H](C)[C@@H](c1ccccc1)N2Cc1cccc(F)c1 [Compound 8k, N-((2S,3R,4S)-1-(3-Fluorobenzyl)-6-methoxy-3-methyl-2-phenyl-1,2,3,4-tetrahydroquinolin-4-yl)methanesulfonamide]
EC50 [1]: > 40 µM | EC50 [2, 6]: < 10 µM | EC50 [2, 7]: 8.3 µM | EC50 [3]: > 40 µM | EC50 [4]: > 40 µM | mSTC-1 GLP1 Sec %Stim@2 μM [5]: 0% | mSTC-1 GLP1 Sec %Stim@20 μM [5]: 53%

COc1ccc2c(c1)[C@@H](NCc1ccccn1)[C@H](C)[C@@H](c1ccccc1)N2C(=O)NC(C)C [Compound 8e, (2S,3S,4S)-N-isopropyl-6-methoxy-3-methyl-2-phenyl-4-((pyridin-2-ylmethyl)amino)-3,4-dihydroquinoline-1(2H)-carboxamide]
activation at 20 µM [5]: 0%

COc1ccc2c(c1)[C@@H](NS(C)(=O)=O)[C@H](C)[C@@H](C(C)C)N2 [Compound 8m, N-((2R,3R,4S)-2-Isopropyl-6-methoxy-3-methyl-1,2,3,4-tetrahydroquinolin-4-yl)methanesulfonamide]
activation at 20 µM [5]: 0%
